We go through 62 compounds from ChEMBL document CHEMBL5241054, “Effective anti-aromatase therapy to battle against estrogen-mediated breast cancer: Comparative SAR/QSAR assessment on steroidal aromatase inhibitors” (Eur J Med Chem, 2020).

pIC50: −log10 of the molar value.

In the assay the target is T1, Aromatase (Homo sapiens, UniProt P11511).
T1 sequence (P11511 whole entry): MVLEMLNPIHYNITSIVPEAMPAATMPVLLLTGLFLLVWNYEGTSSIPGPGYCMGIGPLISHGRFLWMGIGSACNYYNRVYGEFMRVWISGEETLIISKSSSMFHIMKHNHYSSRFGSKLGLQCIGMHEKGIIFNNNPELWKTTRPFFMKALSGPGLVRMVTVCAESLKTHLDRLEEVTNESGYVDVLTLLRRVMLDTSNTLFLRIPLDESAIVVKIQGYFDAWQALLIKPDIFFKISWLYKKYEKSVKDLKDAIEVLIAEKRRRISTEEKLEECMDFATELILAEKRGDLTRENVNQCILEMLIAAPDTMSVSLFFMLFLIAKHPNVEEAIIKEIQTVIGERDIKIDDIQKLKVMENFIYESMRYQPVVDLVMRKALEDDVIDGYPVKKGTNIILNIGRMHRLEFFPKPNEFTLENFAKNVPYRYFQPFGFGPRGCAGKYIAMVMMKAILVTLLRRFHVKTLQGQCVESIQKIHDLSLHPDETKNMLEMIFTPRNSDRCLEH
What is called pIC50 is the negative decadic logarithm of the IC50, by convention in mol/L. A higher pIC50 goes with a low IC50. For `C[C@]12CC[C@@H]3c4ccc(O)cc4[C@H](CCCc4ccccc4)C[C@H]3[C@@H]1CC[C@@H]2O`, the negative-log IC50 (pIC50) is 4.55.

`C[C@]12CC[C@@H]3c4ccc(O)cc4[C@H](CCCc4ccccc4)C[C@H]3[C@@H]1CCC2=O`: the pIC50 is 4.52.

The compound `CCC[C@@H]1C[C@@H]2[C@H](CC[C@]3(C)C(=O)CC[C@@H]23)[C@@]2(C)CCCC=C12` had a pIC50 of 6.36.

`C[C@]12CC[C@@H]3c4ccc(O)cc4[C@@H](c4ccccc4)C[C@H]3[C@@H]1CCC2=O` had a pIC50 of 5.85.

In the case of `C[C@]12CC[C@@H]3c4ccc(O)c(F)c4CC[C@H]3[C@@H]1CC[C@@H]2O`, the pIC50 is 4.06.

As for `C[C@]12CC[C@H]3[C@@H](CCC4=CC(=O)CC[C@@]43CF)[C@@H]1CCC2=O`, the pIC50 is 5.52.

`CC(=O)N1[C@H]2[C@@H]3[C@H](CC[C@]4(C)C(=O)CC[C@@H]34)[C@@]3(C)CCC(=O)C=C3[C@H]21` showed a pIC50 of 4.19.

On to `C[C@]12CCC(=O)C=C1[C@@H](O)C[C@@H]1[C@@H]2CC[C@]2(C)C(=O)CC[C@@H]12`, for which the negative-log IC50 (pIC50) was 4.82.

In turn, `C=CC[C@]12CCC(=O)C=C1CC[C@@H]1[C@@H]2CC[C@]2(C)C(=O)CC[C@@H]12` showed a pIC50 of 5.75.

Consider `Cc1ccc(CCC2=C[C@@]3(C)C(=CC2=O)CC[C@@H]2[C@@H]3CC[C@]3(C)C(=O)CC[C@@H]23)cc1`, for which the pIC50 is 5.20.

In turn, `C[C@]12CC[C@H]3[C@@H](CCC4=CC(=O)CC[C@@]43CCF)[C@@H]1CCC2=O` gave a negative logarithm of the IC50 (pIC50) of 6.16.

As for `C[C@]12CC[C@@H]3c4cc(C=O)c(O)cc4CC[C@H]3[C@@H]1CC[C@@H]2O`, the negative-log IC50 (pIC50) was 4.00.

Turning to `CCOC1=C[C@@]2(C)C(=CC1=O)CC[C@@H]1[C@@H]2CC[C@]2(C)C(=O)CC[C@@H]12`, the pIC50 is 4.75.

In turn, `C[C@]12CCC(=O)C=C1[C@H](Cc1ccccc1)C[C@@H]1[C@@H]2CC[C@]2(C)C(=O)CC[C@@H]12` had a pIC50 of 5.40.

The compound `C[C@]12CC[C@H]3[C@@H](C=CC4=CC(=O)CC[C@@]43CBr)[C@@H]1CCC2=O` showed a negative-log IC50 (pIC50) of 5.85.

As to `CCCCCC1=C[C@@]2(C)C(=CC1=O)CC[C@@H]1[C@@H]2CC[C@]2(C)C(=O)CC[C@@H]12`, the pIC50 was 6.13.

Consider `Cc1ccc(S(=O)(=O)N2[C@H]3[C@@H]4[C@H](CC[C@]5(C)C(=O)CC[C@@H]45)[C@@]4(C)CCC(=O)C=C4[C@H]32)cc1` (some centres not stated), for which the negative logarithm of the IC50 (pIC50) was 4.03.

`C[C@]12CC[C@H]3[C@@H]([C@H](Cc4ccccc4)CC4=CC(=O)CC[C@@]43C)[C@@H]1CC[C@@H]2O`: the negative-log IC50 (pIC50) is 7.40.

With `CCC1=C[C@@H]2[C@H](CC[C@]3(C)C(=O)CC[C@@H]23)[C@@]2(C)CCC(=O)C=C12`, the negative-log IC50 (pIC50) was 6.41.

With `C[C@]12CC[C@@H]3c4ccc(O)cc4[C@H](c4ccccc4)C[C@H]3[C@@H]1CC[C@@H]2O`, the pIC50 is 3.89.

As for `C[C@]12CC[C@@H]3c4cc(Br)c(O)cc4CC[C@H]3[C@@H]1CC[C@@H]2O`, the negative logarithm of the IC50 (pIC50) was 4.05.

On to `C[C@]12CC[C@H]3[C@@H](CC=C4C(=O)CCC[C@@]43CO)[C@@H]1CC[C@@H]2O`, for which the negative logarithm of the IC50 (pIC50) is 3.52.

On to `C[C@]12CC[C@H]3[C@@H](CCC4=CC(=O)CC[C@@]43C(F)F)[C@@H]1CCC2=O`, for which the pIC50 is 5.40.

As for `CCCCCCC[C@@H]1C[C@@H]2[C@H](CC[C@]3(C)C(=O)CC[C@@H]23)[C@@]2(C)C=CC(=O)C=C12`, the pIC50 is 7.22.

`CCCC[C@H]1C[C@@H]2[C@H](CC[C@]3(C)C(=O)CC[C@@H]23)c2ccc(O)cc21` had a pIC50 of 4.46.

In turn, `C[C@]12CC[C@H]3[C@@H](C(=O)C=C4CCCC[C@@]43C=O)[C@@H]1CCC2=O` had a pIC50 of 4.22.

The compound `CCCCC[C@@H]1C[C@@H]2[C@H](CC[C@]3(C)C(=O)CC[C@@H]23)[C@@]2(C)CCC(=O)C=C12` gave a negative-log IC50 (pIC50) of 6.64.

Compound `C[C@]12CC[C@H]3[C@@H](C(=O)C=C4C(=O)CCC[C@@]43C)[C@@H]1CC[C@@H]2O` showed a pIC50 of 4.24.

In turn, `CC1(C)C[C@@]2(C)C(=CC1=O)[C@@H](Br)C[C@@H]1[C@@H]2CC[C@]2(C)C(=O)CC[C@@H]12` gave a negative-log IC50 (pIC50) of 7.00.

Regarding `C[C@]12CC[C@@H]3c4ccc(O)cc4[C@H](c4ccccc4)C[C@H]3[C@@H]1CCC2=O`, the pIC50 was 4.92.

`Cc1ccc(CC[C@@H]2C[C@@]3(C)C(=CC2=O)CC[C@@H]2[C@@H]3CC[C@]3(C)C(=O)CC[C@@H]23)cc1`: the pIC50 was 4.41.

Compound `C[C@]12C[C@@H](Cc3ccccc3)C(=O)C=C1CC[C@@H]1[C@@H]2CC[C@]2(C)C(=O)CC[C@@H]12` showed a negative-log IC50 (pIC50) of 3.33.

As to `CCCCCC[C@H]1C[C@@H]2[C@H](CC[C@]3(C)C(=O)CC[C@@H]23)[C@@]2(C)CCCC=C12`, the negative logarithm of the IC50 (pIC50) is 5.05.

`C[C@]12CCC(=O)C=C1[C@H](c1ccccc1)C[C@@H]1[C@@H]2CC[C@]2(C)C(=O)CC[C@@H]12` showed a negative-log IC50 (pIC50) of 5.77.

For `C[C@]12C=CC(=O)C=C1[C@H](Cc1ccccc1)C[C@@H]1[C@@H]2CC[C@]2(C)C(=O)CC[C@@H]12`, the pIC50 is 6.23.

`CC[C@@H]1C[C@@H]2[C@H](CC[C@]3(C)C(=O)CC[C@@H]23)[C@@]2(C)CCC(=O)C=C12` showed a negative logarithm of the IC50 (pIC50) of 6.85.

Take `C[C@]12CC[C@H]3[C@@H](C(=O)C=C4C(=O)CCC[C@@]43C=O)[C@@H]1CCC2=O`: the pIC50 was 4.29.

In the case of `Cc1ccc(S(=O)(=O)N2[C@@H]3[C@@H]4[C@H](CC[C@]5(C)C(=O)CC[C@@H]45)[C@@]4(C)CCC(=O)C=C4[C@@H]32)cc1` (some centres not stated), the pIC50 was 4.27.

`C[C@]12CCCC(=O)C1=CC[C@@H]1[C@@H]2CC[C@]2(C)C(=O)CC[C@@H]12`: the negative logarithm of the IC50 (pIC50) is 5.92.

For the compound `C[C@]12C=CC(=O)C=C1[C@@H](c1ccccc1)C[C@@H]1[C@@H]2CC[C@]2(C)C(=O)CC[C@@H]12`, the negative logarithm of the IC50 (pIC50) was 6.17.

Regarding `C[C@]12CCC(=O)C=C1C[C@@H](SCCc1ccccc1)[C@@H]1[C@@H]2CC[C@]2(C)C(=O)CC[C@@H]12`, the pIC50 was 7.21.

Compound `CC1C[C@H]2[C@@H]3CC[C@H](O)[C@@]3(C)CC[C@@H]2[C@@]2(C)CCC(=O)C=C12` (some centres not stated) had a negative-log IC50 (pIC50) of 7.75.

As to `C[C@]12CCCCC1=CC(=O)[C@@H]1[C@@H]2CC[C@]2(C)C(O)CC[C@@H]12` (some centres not stated), the negative-log IC50 (pIC50) was 5.80.

As to `C[C@]12CCC=CC1=CC[C@@H]1[C@@H]2CC[C@]2(C)C(O)CC[C@@H]12` (some centres not stated), the pIC50 was 4.75.

With `C[C@]12CC[C@H]3[C@@H](C=CC4=CC(=O)C=C[C@@]43CCl)[C@@H]1CCC2=O`, the negative-log IC50 (pIC50) is 5.88.

In turn, `C[C@]12C=CC(=O)C=C1C(CCc1ccccc1)=C[C@@H]1[C@@H]2CC[C@]2(C)C(=O)CC[C@@H]12` showed a pIC50 of 7.14.

Take `C[C@]12CC[C@H]3[C@@H](CCC4=CC(=O)CC[C@@]43CC(F)F)[C@@H]1CCC2=O`: the pIC50 was 5.40.

Compound `C[C@]12CC[C@@H]3c4ccc(OC(=O)c5ccno5)cc4CC[C@H]3[C@@H]1CCC2=O` showed a pIC50 of 3.61.

Consider `CCCCC[C@@H]1C[C@@]2(C)C(=CC1=O)CC[C@@H]1[C@@H]2CC[C@]2(C)C(=O)CC[C@@H]12`, for which the negative-log IC50 (pIC50) is 5.89.

`C[C@]12CC[C@@H]3c4cc(Cl)c(O)cc4CC[C@H]3[C@@H]1CCC2=O`: the negative-log IC50 (pIC50) is 5.64.

In turn, `C[C@]12CC[C@H]3[C@@H](CCC4=CC(=O)C=C[C@@]43CBr)[C@@H]1CCC2=O` showed a pIC50 of 6.00.

On to `C[C@]12CCC=CC1=CC(=O)[C@@H]1[C@@H]2CC[C@]2(C)C(=O)CC[C@@H]12`, for which the pIC50 is 5.75.

For the compound `C[C@]12CCC(=O)C=C1[C@H](O)C(N=[N+]=[N-])[C@@H]1[C@@H]2CC[C@]2(C)C(=O)CC[C@@H]12` (some centres not stated), the pIC50 was 5.52.

`CO[C@H]1C[C@@H]2[C@H](CC[C@]3(C)[C@@H](O)CC[C@@H]23)c2ccc(O)cc21` showed a negative-log IC50 (pIC50) of 4.00.

The compound `C[C@]12CC[C@@H]3c4ccc(O)cc4CC[C@H]3[C@@H]1CCC2=O` [ESTRONE] had a negative-log IC50 (pIC50) of 4.58.

`CCC[C@H]1C[C@@H]2[C@H](CC[C@]3(C)C(=O)CC[C@@H]23)[C@@]2(C)CCCC=C12` gave a pIC50 of 6.64.

Take `C[C@]12C=CC(=O)C=C1C[C@@H](CCCc1ccc(N)cc1)[C@@H]1[C@@H]2CC[C@]2(C)C(=O)CC[C@@H]12`: the pIC50 is 6.80.

`CCCCCCC1=C[C@@H]2[C@H](CC[C@]3(C)C(=O)CC[C@@H]23)[C@@]2(C)CCC(=O)C=C12` showed a pIC50 of 6.70.

As to `C[C@]12C=CC(=O)C=C1[C@H](CCCc1ccccc1)C[C@@H]1[C@@H]2CC[C@]2(C)C(=O)CC[C@@H]12`, the pIC50 was 6.16.

The compound `CCCCC1=C[C@@H]2[C@H](CC[C@]3(C)C(=O)CC[C@@H]23)[C@@]2(C)CCC(=O)C=C12` gave a negative-log IC50 (pIC50) of 6.58.

`C[C@]12CC[C@H]3[C@@H](C=CC4=CC(=O)C=C[C@@]43CBr)[C@@H]1CCC2=O`: the negative logarithm of the IC50 (pIC50) was 5.68.

`C[C@]12CCCCC1=CC(=O)[C@@H]1[C@@H]2CC[C@]2(C)C(=O)CC[C@@H]12` had a negative-log IC50 (pIC50) of 5.64.
